# System: HEK293
# Assay: Inhibition of Ca2+ release activated Ca2+ channels in thapsigarin-treated HEK cells
# Type: cell-based
# Settings: Homo sapiens
structure (smiles),measurement,value
CNC(=O)C[C@H]1C(=O)N(C)[C@@H](C)C(=O)OC(C)CCC/C=C/CCC(OC)C/C=C/C=C(\C)C(=O)N[C@H](C(C)C)C(=O)N(C)[C@@H](Cc2ccccc2)C(=O)N(C)[C@@H](C(C)C)C(=O)N(C)[C@@H](C(C)C)C(=O)N2CCC[C@H]2C(=O)N1C (stereo partly specified),Activity,Dose-dependent effect
